Results taken from US20100048950A1 (BOEHRINGER INGELHEIM INTERNATIONAL GMBH, priority 2007, published 2010).

Legend:
glucocorticoid receptor = experiment: Agonist activity in one or more of the above assays (GR cell assays); format: cell-based; conditions: in one or more of the above assays (assay not specified)
Experimental: Dexamethasone, a synthetic ligand to the glucocorticoid receptor (GR), induces expression of aromatase in human foreskin fibroblast cells. The activity of aromatase is measured by the conversion of testosterone to estradiol in culture media.
Human foreskin fibroblast cells (ATCC Cat. No. CRL-2429, designation CCD112SK) are plated on 96 well plates at 50,000 cells per well 5 days before use, in Iscove's Modified Dulbecco's Media (GibcoBRL Life Technologies Cat No. 12440-053) supplemented with 10% charcoal filtered FBS (Clonetech Cat No. SH30068) and Gentamycin (GibcoBRL Life Technologies Cat. No. 15710-064). On the day of the experiment, the media in the wells is replaced with fresh media. Cells are treated with test compounds to final concentrations of 10^−5 M to […], and testosterone to a final concentration of 300 ng/mL. Each well has a total volume of 100 μL. Samples are made in duplicates. Control wells include: (a) wells that receive testosterone only, and (b) wells that receive testosterone plus 2 μM of dexamethasone to provide maximum induction of aromatase. Plates are incubated at 37° C. overnight (15 to 18 hours), and supernatants are harvested at the end of incubation. Estradiol in the supernatant is measured using ELISA kits for estradiol (made by ALPCO, obtained from American Laboratory Products Cat. No. 020-DR-2693) according to the manufacture's instruction. The amount of estradiol is inversely proportional to the ELISA signals in each well. The extent of aromatase induction by test compounds is expressed as a relative percentage to dexamethasone. EC50 values of test compounds are derived by non-linear curve fitting.
Human foreskin fibroblast cells produce IL-6 in response to stimulation by pro-inflammatory cytokine IL-1.
Human foreskin fibroblast cells (ATCC Cat. No. CRL-2429) are plated on 96 well plates at 5,000 cells per well the day before use, in Iscove's Modified Dulbecco's Media (GibcoBRL Life Technologies Cat. No. 12440-053) supplemented with 10% charcoal filtered FBS (Clonetech Cat. No. SH30068) and Gentamycin (GibcoBRL Life Technologies Cat. No. 15710-064). On the next day, media in the wells is replaced with fresh media. Cells are treated with IL-1 (rhIL-1α, R&D Systems Cat. No. 200-LA) to a final concentration of 1 ng/mL, and with test compounds to final concentrations of 10^−5 M to 10^−8 M, in a total volume of 200 μL per well. Samples are done in duplicates. […] Positive control wells receive IL-1 only and represent maximum (or 100%) amount of IL-6 production. Plates are incubated at 37° C. overnight (15 to 18 hours), and supernatants are harvested at the end of incubation. IL-6 levels in the supernatants are determined by the ELISA kits for IL-6 (MedSystems Diagnostics GmbH, Vienna, Austria, Cat. No. BMS213TEN) according to manufacture's instructions. The extent of inhibition of IL-6 by test compounds is expressed in percentage relative to positive controls. IC50 values of test compounds are derived by non-linear curve fitting.
Evaluation of agonist or antagonist activity of compounds binding to the glucocorticoid receptor may be determined by any of the assays.
Testing of compounds for agonist or antagonist activity in induction of tyrosine aminotransferase (TAT) in rat hepatoma cells.
H4-II-E-C3 cells were incubated overnight in 96 well plates (20,000 cells/100 μL/well) in MEM medium containing 10% heat inactivated FBS and 1% nonessential amino acids. On the next day, cells were stimulated with the indicated concentrations of dexamethasone or test compound (dissolved in DMSO, final DMSO concentration 0.2%) for 18 hours. Control cells were treated with 0.2% DMSO. After 18 hours, the cells were lysed in a buffer containing 0.1% Triton X-100 and the TAT activity was measured in a photometric assay using tyrosine and alpha-ketoglutarate as substrates. […]

[1] = target: T1, human glucocorticoid receptor (GR) complex (Homo sapiens, UniProt P04150); experiment: Glucocorticoid receptor competitive binding assay (fluorescence polarization); conditions: competition with TAMRA-labeled dexamethasone, read-out: potent activity (IC50) in the GR binding assay
T1 construct: made in house; host or cells: insect expression system (baculovirus lysate)
T1 sequence (P04150 1-777): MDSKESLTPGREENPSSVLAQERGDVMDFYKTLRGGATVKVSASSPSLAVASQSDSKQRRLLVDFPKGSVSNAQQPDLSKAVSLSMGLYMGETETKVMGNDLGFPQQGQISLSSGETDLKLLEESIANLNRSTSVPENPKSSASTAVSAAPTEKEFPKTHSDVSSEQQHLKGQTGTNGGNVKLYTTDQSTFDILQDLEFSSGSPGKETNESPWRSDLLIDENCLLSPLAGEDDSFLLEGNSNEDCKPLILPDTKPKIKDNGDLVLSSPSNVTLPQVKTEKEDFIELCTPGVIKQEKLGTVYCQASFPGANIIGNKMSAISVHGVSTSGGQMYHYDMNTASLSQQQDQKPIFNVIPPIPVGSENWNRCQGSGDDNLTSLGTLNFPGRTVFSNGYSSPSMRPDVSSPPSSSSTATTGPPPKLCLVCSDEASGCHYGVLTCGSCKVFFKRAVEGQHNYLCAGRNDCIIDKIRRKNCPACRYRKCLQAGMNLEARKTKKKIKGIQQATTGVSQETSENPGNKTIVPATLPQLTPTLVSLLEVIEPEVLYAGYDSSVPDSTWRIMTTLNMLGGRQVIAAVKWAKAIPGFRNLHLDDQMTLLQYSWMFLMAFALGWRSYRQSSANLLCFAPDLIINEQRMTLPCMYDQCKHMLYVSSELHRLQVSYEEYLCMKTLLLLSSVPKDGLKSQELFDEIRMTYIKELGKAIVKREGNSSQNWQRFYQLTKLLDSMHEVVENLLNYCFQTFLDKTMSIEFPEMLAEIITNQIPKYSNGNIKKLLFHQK
Summary of the method: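 Human GR complex in baculovirus insect-cell lysate (1:170) competed against 15 nM TAMRA-dexamethasone stock for 1 h at room temperature. Buffer: TES/KCl/molybdate/EDTA/CHAPS/glycerol/DTT, pH 7.4, 1% DMSO final. FP read at 550/580 nm; IC50 from 4-parameter logistic fit.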

IC50 [1] | melting point | SMILES | activity as an agonist of the glucocorticoid receptor function (glucocorticoid receptor)
≤ 100 nM |  | Cc1cc(C)c(S(=O)(=O)NC(CNc2ccc(Cl)c3ccccc23)C(F)(F)F)c(C)c1 (stereo not shown) [N-{1-[(4-Chloronaphthalen-1-ylamino)methyl]-2,2,2-trifluoroethyl}-2,4,6-trimethylbenzenesulfonamide] | activity as an agonist
 | 151 °C | CC[C@@H](CNc1ccc(C)cc1C)NS(=O)(=O)c1c(N)cc(Cl)cc1Cl | 
≤ 100 nM |  | Cc1cc(C)c(S(=O)(=O)NC(CNc2cccc3c(C#N)cccc23)C(F)(F)F)c(C)c1 (stereo not shown) [N-{1-[(5-Cyanonephthalen-1-ylamino)methyl]-2,2,2-trifluoroethyl}-2,4,6-trimethyl-benzenesulfonamide] | activity as an agonist
≤ 100 nM |  | CC[C@@H](CNc1ccc(C)cc1C)NS(=O)(=O)c1c(N)cc(Cl)cc1Cl [2-Amino-4,6-dichloro-N—{(S)-1-[(2,4-dimethylphenylamino)methyl]propyl}benzenesulfonamide] | activity as an agonist
≤ 100 nM |  | Cc1cc(C)c(S(=O)(=O)NC(CNc2cccc3ccccc23)C(F)(F)F)c(C)c1 (stereo not shown) [2,4,6-Trimethyl-N-[2,2,2-trifluoro-1-(naphthalen-1-ylaminomethyl)ethyl]benzenesulfonamide] | activity as an agonist
≤ 100 nM |  | Cc1ccc(NCC(NS(=O)(=O)c2c(C)cc(C)cc2C)C(F)(F)F)cc1 (stereo not shown) [2,4,6-Trimethyl-N-[2,2,2-trifluoro-1-(p-tolylaminomethyl)ethyl]benzenesulfonamide] | 
≤ 100 nM |  | Cc1cc(C)c(S(=O)(=O)NC(COc2ccc(C)c(Cl)c2)C(F)(F)F)c(C)c1 (stereo not shown) [N-[1-(3-Chloro-4-methylphenoxymethyl)-2,2,2-trifluoroethyl]-2,4,6-trimethylbenzenesulfonamide] | 
≤ 100 nM |  | CC[C@@H](CNc1cccc2ccccc12)NS(=O)(=O)c1c(N)cc(Cl)cc1Cl [2-Amino-4,6-dichloro-N-[(S)-1-(naphthalen-1-ylaminomethyl)propyl]benzenesulfonamide] | activity as an agonist
≤ 100 nM |  | Cc1cc(C)c(S(=O)(=O)NC(CNc2ccccc2OC(F)(F)F)C(F)(F)F)c(C)c1 (stereo not shown) [2,4,6-Trimethyl-N-{2,2,2-trifluoro-1-[(2-trifluoromethoxyphenylamino)methyl]ethyl}benzenesulfonamide] | 

More lines, now with the values behind:

SMILES | IC50 [1] | melting point | activity as an agonist of the glucocorticoid receptor function (glucocorticoid receptor)
Cc1cc(C)c(S(=O)(=O)NC(CSc2cccc3ccccc23)C(F)(F)F)c(C)c1 (stereo not shown) [2,4,6-Trimethyl-N-[2,2,2-trifluoro-1-(naphthalen-1-ylsulfanylmethyl)ethyl]benzenesulfonamide] | ≤ 100 nM |  | activity as an agonist
CCCN(CC(NS(=O)(=O)c1c(C)cc(C)cc1C)C(F)(F)F)c1ccccc1 (stereo not shown) | ≤ 100 nM |  | 
Cc1cc(C)c(S(=O)(=O)NC(CSc2ccccc2)C(F)(F)F)c(C)c1 (stereo not shown) [2,4,6-Trimethyl-N-(2,2,2-trifluoro-1-phenylsulfanylmethylethyl)benzenesulfonamide] | ≤ 100 nM |  | 
Cc1cc(C)cc(SCC(NS(=O)(=O)c2c(C)cc(C)cc2C)C(F)(F)F)c1 (stereo not shown) [N-[1-(3,5-Dimethylphenylsulfanylmethyl)-2,2,2-trifluoroethyl]-2,4,6-trimethylbenzenesulfonamide] | ≤ 100 nM |  | 
Cc1cc(C)c(S(=O)(=O)NC(COc2cc(F)ccc2Br)C(F)(F)F)c(C)c1 (stereo not shown) [N-[1-(2-Bromo-5-fluorophenoxymethyl)-2,2,2-trifluoroethyl]-2,4,6-trimethylbenzenesulfonamide] | ≤ 100 nM |  | 
COC(=O)c1cccc(NCC(NS(=O)(=O)c2c(C)cc(C)cc2C)C(F)(F)F)c1 (stereo not shown) [3-[3,3,3-Trifluoro-2-(2,4,6-trimethylbenzenesulfonylamino)propylamino]benzoic acid methyl ester] | ≤ 100 nM |  | 
Cc1cc(C)c(S(=O)(=O)NC(COc2cccc(F)c2)C(F)(F)F)c(C)c1 (stereo not shown) [2,4,6-Trimethyl-N-[2,2,2-trifluoro-1-(3-fluorophenoxymethyl)ethyl]benzenesulfonamide] | ≤ 100 nM |  | 
Cc1cc(C)c(S(=O)(=O)NC(COc2ccccc2C#N)C(F)(F)F)c(C)c1 (stereo not shown) [N-[1-(2-Cyanophenoxymethyl)-2,2,2-trifluoroethyl]-2,4,6-trimethylbenzenesulfonamide] | ≤ 100 nM |  | 
Cc1cc(C)c(S(=O)(=O)NC(COc2ccc3c(c2)CCC3)C(F)(F)F)c(C)c1 (stereo not shown) [2,4,6-Trimethyl-N-[2,2,2-trifluoro-1-(indan-5-yloxymethyl)ethyl]benzenesulfonamide] | ≤ 100 nM |  | 
Cc1cc(C)c(S(=O)(=O)NC(CN(C)c2ccccc2)C(F)(F)F)c(C)c1 (stereo not shown) [2,4,6-Trimethyl-N-{2,2,2-trifluoro-1-[(methylphenylamino)methyl]ethyl}benzenesulfonamide] | ≤ 100 nM |  | 
